Measured values as given in patent publication US7658706B2, “Vascular graft sterilization and decellularization” (RTI Biologics, Inc., priority 2005, dated 2010).

Assays:
[1] = tested on: collagen; assay: Collagen denaturation, quantitative enzyme digestion assay (matrix integrity); conditions: Triton 1.0%, Cholate 0.25%, 48° C., 24 hours, constant agitation (FIG. 11)
Protocol: One of the major structural components of the extracellular matrix that gives veins their strength is collagen. Damage to collagen can result in mechanical failures such as increased compliance or aneurism formation. It can also result in a cellular response due the exposure of the triple helix when stability is compromised. The amount of collagen denaturation was assessed to evaluate processing conditions with a quantitative enzyme digestion assay. […] Digested and undigested fractions are separated and hydrolyzed with concentrated hydrochloric acid (HCl) to release free amino acids from each fraction. Following neutralization of the acid in 1 N NaOH, levels of hydroxyproline (an amino acid present in high concentrations in collagen) are assessed in each fraction by a calorimetric method at a wavelength of 550 nm (Chloramine T binding, and reduction of the substrate DAB to a colored end product). The level of denatured collagen in a given sample is then expressed as a percent of the trypsin soluble fraction to the sum of both trypsin soluble and trypsin insoluble fractions.
Achieving the appropriate log reduction should not come at the expense of the integrity of the extracellular matrix. […] The effect of hydrogen peroxide at 6% at 40° C. and 50° C. on collagen was compared to PAA at 0.1% at the same specified temperatures.
Digested and undigested fractions are separated and hydrolyzed with concentrated hydrochloric acid (HCl) to release free amino acids from each fraction. Following neutralization of the acid in 1 N NaOH, levels of hydroxyproline (an amino acid present in high concentrations only in collagen) are assessed in each fraction by a calorimetric method (Chloramine T binding, and reduction of the substrate DAB to a colored end product). The level of denatured collagen in a given sample is then expressed as a percent of the trypsin soluble fraction to the sum of both trypsin soluble and trypsin insoluble fractions.

[2] = tested on: class I MHC antigens in human saphenous vein; assay: Immunohistochemical stain for class I MHC antigens after decellularization (Example 1); conditions: high concentrations and high temperatures
Protocol: The effectiveness of cell and cellular debris removal was evaluated using two detergent and two enzyme solutions at various concentrations (Table 2). […] One treatment group combined Triton-X 100 with sodium deoxycholate. Trypsin alone at 0.05% (w/v) or 1.0% (w/v) and in combination with 0.02% (w/v) EDTA were the enzyme solutions used in the decellularization process.
(§1) Samples were then rinsed in PBS at room temperature for 10 minutes while continuously shaking. Following the rinse step, the samples were cut in half and either prepared for histology or immunohistochemistry.
Immunohistochemistry was used to determine the level of antigens remaining in the tissue after treatment. […] Samples were prepared in frozen blocks and sectioned with a cryostat. The sections were thawed and then rinsed for blocking and antibody staining. Sections were incubated for 30 minutes in primary antibody (mouse anti-HLA-ABC class I MHC) solution and then for anther 30 minutes in diluted biotinylated secondary antibody (Vector ABC Elite kit) solution. An enzyme substrate, NovaRed (Vector), was used to stain the antibodies red. The counter stain was hematoxylin providing a blue contrast.
A Zeiss Axiophot 2 microscope with a motorized Ludl scanning stage was used with tile field mapping at 5× to capture the entire image in one frame. Particle analysis was performed in Image J to determine the ratio of antigen staining (red) to the total tissue sample.
A blue and green filter was applied to only allow red to pass. Obvious areas of antigen staining were removed due to this variation in red hue. […] All samples were compared to their negatives for a percentage of red staining.
This procedure was applied to all images. […] The treatment groups are labeled according to the detergent or enzyme used followed by the processing conditions. For the Trypsin and Trypsin+EDTA groups, the concentrations ranged from 0.05% (L) to 1.0% (H), the processing temperatures were 37° C. (L), 48° C. (M) and 55° C. (H), and the processing times were 6 hrs (L), 17 hrs (M) and 24 hrs (H).

[3] = tested on: human saphenous vein; assay: Histology (H&E) for cellularity and matrix (Example 1); conditions: 1.0% Cholate at 48° C.
Protocol: as §1, with “Samples of human saphenous veins 10 mm in length were placed in each of the test solution at 37° C. or 48° C. for both 6 and 24 hours while continuously shaking. Samples” for “Samples”
Samples were placed in 10% buffered formalin immediately following the rinse step and remained there for at least 24 hours before further preparation. Then, the samples were embedded in paraffin and stained with hematoxylin and eosin (H&E) to determine cellularity.
The results of the immunohistochemical stain were compared to histology slides stained for cellularity (FIGS. 7 to 10). […] The extracellular matrix is preserved in each segment except with 1.0% Cholate at 48° C.

[4] = Biocompatibility of the detergent injected in a rat; format: in vivo, Sprague Dawley rats; conditions: 0.25%, 0.1%, 0.01%, 0.001% in four sites, 6 weeks after surgery
Protocol: Four implants from each group go into one rat for a total of 7 rats and 28 implant sites. An eighth rat is injected in four sites with decreasing concentrations of sodium deoxycholate (0.25%, 0.1%, 0.01%, 0.001%) to measure the biocompatibility of the detergent.

## sodium deoxycholate
[1]
  collagen degradation compared to untreated controls: A significant degradative effect was not seen
[2]
  removal of class I MHC staining: approximately 100%
  staining: approximately 0%
[3]
  extracellular matrix in histology: large holes within the venous wall and separation between the fibers
[4]
  response to injected detergent: No response was noted
